# Experiments:
# S. aureus DSM 20231 [1] = assay: fitness (endpoint OD595 vs no drug) (fraction); higher = more growth
# Outline: (§1)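 With the first reading as background, OD595 was measured every 30 min for 14 h in 384-well plates kept at 37 °C and inoculated at OD595 0.01. TSB, LB Lennox or CY was the medium. Fitness is the optical density at the transition into stationary phase divided by the robust mean of no-drug control wells, with a cap of 1.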
# S. aureus Newman [2] = assay: as above
# Outline: as §1
# S. pneumoniae D39V [3] = assay: as above
# Outline: as §1
# B. subtilis 168 = assay: Bliss interaction score (quartile over a dose matrix) (fitness difference); higher = more antagonism (negative = synergy)
# Outline: (§2)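 Quartiles summarise the Bliss score over technical, biological and donor/recipient replicates, where the score is observed minus expected fitness under a product model. Expected fitness uses single-drug values inferred from combination data. Fitness is OD595 at entry into stationary phase over the plate's robust no-drug mean, capped at 1.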
# S. aureus DSM 20231 [4] = assay: as above
# Outline: as §2
# S. aureus Newman [5] = assay: as above
# Outline: as §2
# S. pneumoniae D39V [6] = assay: as above
# Outline: as §2
# [7] = first compound 0.078 µg/mL, partner 0.1875 µg/mL
# [8] = first compound 0.078 µg/mL, partner 0.375 µg/mL
# [9] = first compound 0.078 µg/mL, partner 0.75 µg/mL
# [10] = first compound 0.156 µg/mL, partner 0.1875 µg/mL
# [11] = first compound 0.156 µg/mL, partner 0.375 µg/mL
# [12] = first compound 0.156 µg/mL, partner 0.75 µg/mL
# 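Throughout, for Bliss interaction score (quartile over a dose matrix): first quartile when negative (synergy) and third quartile when positive (antagonism).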
smiles,measurement,setting,value
CO/N=C(\C(=O)N[C@@H]1C(=O)N2C(C(=O)O)=C(COC(C)=O)CS[C@H]12)c1csc(N)n1 [Cefotaxime] + CN[C@H](CC(C)C)C(=O)N[C@H]1C(=O)N[C@@H](CC(N)=O)C(=O)N[C@H]2C(=O)N[C@H]3C(=O)N[C@H](C(=O)N[C@H](C(=O)O)c4cc(O)cc(O)c4-c4cc3ccc4O)[C@H](O)c3ccc(c(Cl)c3)Oc3cc2cc(c3O[C@@H]2O[C@H](CO)[C@@H](O)[C@H](O)[C@H]2O[C@H]2C[C@](C)(N)[C@H](O)[C@H](C)O2)Oc2ccc(cc2Cl)[C@H]1O [Vancomycin],fitness,"S. aureus DSM 20231 [1]; first compound 0.039 µg/mL, partner 0.1875 µg/mL",0.791
same,fitness,"S. aureus DSM 20231 [1]; first compound 0.039 µg/mL, partner 0.375 µg/mL",0.78
same,fitness,"S. aureus DSM 20231 [1]; first compound 0.039 µg/mL, partner 0.75 µg/mL",0.805
same,fitness,S. aureus DSM 20231 [1]; [7],0.715
same,fitness,S. aureus DSM 20231 [1]; [8],0.795
same,fitness,S. aureus DSM 20231 [1]; [9],0.752
same,fitness,S. aureus DSM 20231 [1]; [10],0.629
same,fitness,S. aureus DSM 20231 [1]; [11],0.698
same,fitness,S. aureus DSM 20231 [1]; [12],0.772
same,fitness,"S. aureus DSM 20231 [1]; first compound 0.312 µg/mL, partner 0.1875 µg/mL",0.641
same,fitness,"S. aureus DSM 20231 [1]; first compound 0.312 µg/mL, partner 0.375 µg/mL",0.733
same,fitness,"S. aureus DSM 20231 [1]; first compound 0.312 µg/mL, partner 0.75 µg/mL",0.82
same,fitness,"S. aureus Newman [2]; first compound 0.039 µg/mL, partner 0.1875 µg/mL, one replicate",0.732
same,fitness,"S. aureus Newman [2]; first compound 0.039 µg/mL, partner 0.375 µg/mL, one replicate",0.867
same,fitness,"S. aureus Newman [2]; first compound 0.039 µg/mL, partner 0.75 µg/mL, one replicate",0.784
same,fitness,S. aureus Newman [2]; [7],0.723
same,fitness,S. aureus Newman [2]; [8],0.758
same,fitness,S. aureus Newman [2]; [9],0.761
same,fitness,S. aureus Newman [2]; [10],0.62
same,fitness,S. aureus Newman [2]; [11],0.648
same,fitness,S. aureus Newman [2]; [12],0.614
same,fitness,"S. aureus Newman [2]; first compound 0.312 µg/mL, partner 0.1875 µg/mL, one replicate",0.34
same,fitness,"S. aureus Newman [2]; first compound 0.312 µg/mL, partner 0.375 µg/mL, one replicate",0.353
same,fitness,"S. aureus Newman [2]; first compound 0.312 µg/mL, partner 0.75 µg/mL, one replicate",0.395
same,fitness,"S. aureus Newman [2]; first compound 0.625 µg/mL, partner 0.1875 µg/mL",0.0427
same,fitness,"S. aureus Newman [2]; first compound 0.625 µg/mL, partner 0.375 µg/mL",0.0413
same,fitness,"S. aureus Newman [2]; first compound 0.625 µg/mL, partner 0.75 µg/mL",0.0855
same,fitness,"S. aureus Newman [2]; first compound 1.25 µg/mL, partner 0.1875 µg/mL",0.0418
same,fitness,"S. aureus Newman [2]; first compound 1.25 µg/mL, partner 0.375 µg/mL",0.0511
same,fitness,"S. aureus Newman [2]; first compound 1.25 µg/mL, partner 0.75 µg/mL",0.0481
same,fitness,"S. aureus Newman [2]; first compound 2.5 µg/mL, partner 0.1875 µg/mL",0.036
same,fitness,"S. aureus Newman [2]; first compound 2.5 µg/mL, partner 0.375 µg/mL",0.0526
same,fitness,"S. aureus Newman [2]; first compound 2.5 µg/mL, partner 0.75 µg/mL",0.0388
same,fitness,"S. pneumoniae D39V [3]; first compound 0.0018 µg/mL, partner 0.03125 µg/mL",≥ 1
same,fitness,"S. pneumoniae D39V [3]; first compound 0.0018 µg/mL, partner 0.0625 µg/mL",0.892
same,fitness,"S. pneumoniae D39V [3]; first compound 0.0018 µg/mL, partner 0.125 µg/mL",0.907
same,fitness,"S. pneumoniae D39V [3]; first compound 0.0018 µg/mL, partner 0.25 µg/mL",0.909
same,fitness,"S. pneumoniae D39V [3]; first compound 0.0018 µg/mL, partner 0.5 µg/mL",0.0621
same,fitness,"S. pneumoniae D39V [3]; first compound 0.0035 µg/mL, partner 0.03125 µg/mL",0.94
same,fitness,"S. pneumoniae D39V [3]; first compound 0.0035 µg/mL, partner 0.0625 µg/mL",0.803
same,fitness,"S. pneumoniae D39V [3]; first compound 0.0035 µg/mL, partner 0.25 µg/mL",0.793
same,fitness,"S. pneumoniae D39V [3]; first compound 0.0035 µg/mL, partner 0.5 µg/mL",0.047
same,fitness,"S. pneumoniae D39V [3]; first compound 0.007 µg/mL, partner 0.25 µg/mL",0.257
same,fitness,"S. pneumoniae D39V [3]; first compound 0.007 µg/mL, partner 0.5 µg/mL",0.0521
same,Bliss interaction score,B. subtilis 168,-0.0945
same,Bliss interaction score,S. aureus DSM 20231 [4],-0.0428
same,Bliss interaction score,S. aureus Newman [5],-0.0425
same,Bliss interaction score,S. pneumoniae D39V [6],-0.084
